As usually defined, the Kd is the concentration at which binding is half-saturated. For orientation: inhibition means the drop in the measured response relative to a control, in per cent.

Molecules are shown by their SMILES.

Assay [1] has as its target T1, human adenosine A3 receptor (CHO-hA3 membrane preparation) (Homo sapiens, UniProt P0DMS8).
T1 sequence (P0DMS8 1-318): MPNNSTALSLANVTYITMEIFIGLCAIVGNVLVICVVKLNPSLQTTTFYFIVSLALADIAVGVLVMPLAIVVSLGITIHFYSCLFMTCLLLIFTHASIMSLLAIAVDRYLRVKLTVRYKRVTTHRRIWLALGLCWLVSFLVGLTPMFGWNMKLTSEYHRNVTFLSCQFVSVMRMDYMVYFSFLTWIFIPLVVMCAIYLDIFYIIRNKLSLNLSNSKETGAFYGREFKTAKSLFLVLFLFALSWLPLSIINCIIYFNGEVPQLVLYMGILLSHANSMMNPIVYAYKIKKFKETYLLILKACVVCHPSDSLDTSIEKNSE
The experiment in a line: Scatchard analysis of radioisotope saturation curves of the radioligand of Example 2/a. In kind it is binding.
Protocol: (§1) Preparing membrane suspension: collect ovarium cells of cloned Chinese hamster expressing human A3 receptors (further: CHO-hA3), wash them three times with PBS, centrifuge (1000×g 10 min.) and homogenize (B.Braun Potter S) at 1500/min rotation speed. Buffer: 50 mM Tris, 10 mM MgCl2, 1 mM EDTA, pH 8.0. Centrifuge this homogenized mixture (43.000 g, 10 min), suspense the pellet in the above buffer with adjustment of the protein concentration to 0.1 mg/mL (Bradford method) and complete with 2 U/mL ADA.
Incubate the CHO-hA3 membrane preparation (protein content 4 μg) in the presence of the test compound and 0.5 nM of the compound containing radioactive iodine (100.000 cpm), described in Example 2/a, in incubation buffer (50 mM Tris, pH 8.0, 10 mM MgCl2, 1 mM EDTA, 0.08% CHAPS, 0.5% BSA, 2 U/mL adenosine deaminase). […] Keep the isotop preparation and the reaction mixture in polyethylene tube to decrease adsorption. […] Detection of radioactivity: in gamma-counter (1470 Wizard, Wallac). […]
On the basis of radioisotop saturation curves, by Scatchard analysis (G. Scatchard, Ann. N. Y. Acad. Sci. 51:660, 1949) the dissociation constant (KD) of the new radioligand of Example 2/a on CHO-hA3 membrane preparation is determined.

Assay [2] deals with T2, human A1 receptors (CHO-hA1 membrane preparation) (Homo sapiens, UniProt P30542).
T2 sequence (P30542 1-326): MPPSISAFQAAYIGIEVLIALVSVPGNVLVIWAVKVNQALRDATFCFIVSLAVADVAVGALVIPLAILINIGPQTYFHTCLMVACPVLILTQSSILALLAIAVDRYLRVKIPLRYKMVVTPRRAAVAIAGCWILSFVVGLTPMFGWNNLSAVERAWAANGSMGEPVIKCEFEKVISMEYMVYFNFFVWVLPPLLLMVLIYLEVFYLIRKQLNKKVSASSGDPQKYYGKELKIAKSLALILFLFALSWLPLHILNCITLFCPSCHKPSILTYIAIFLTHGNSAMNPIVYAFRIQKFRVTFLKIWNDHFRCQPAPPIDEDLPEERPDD
The experiment in a line: Human adenosine A1 receptor binding, [3H]CCPA. Particulars: 1 μM test compound, radioligand [3H]CCPA. The procedure:
Preparing membrane suspension: collect ovarium cells of cloned Chinese hamster expressing human A1 receptors (further: CHO-hA1), wash them three times with PBS, centrifuge (1000×g 10 min.) and homogenize (B.Braun Potter S) at 1500/min rotation speed. Buffer: 50 mM Tris HCl, pH 7,4. Centrifuge this homogenized mixture (43.000 g, 10 min), suspense the pellet in the above buffer with adjustment of the protein concentration to 5 mg/mL (Bradford method) and complete with 2 U/mL ADA. […] Filter over Whatman GF/B glass fibre filters (presoaked in 0.5% polyethylimine for 3 hours), wash 4× with 1 mL ice-cold 50 mM Tris HCl (pH 7.4) on 96-well Brandel Cell Harvester. Detection of activity: in 96-well plate in the presence of HiSafe-3 cocktail in beta-counter (1450 Microbeta, Wallac). Inhibition [%]=100−((activity in the presence of test compound−non-specific activity)/(total activity−non-specific activity))*100

Assay [3] has as its target T3, human A3 receptors (CHO-hA3 membrane preparation) (Homo sapiens, UniProt P0DMS8).
T3 sequence (P0DMS8 1-318): T1 sequence (P0DMS8 1-318)
The assay is described as follows: Human adenosine A3 receptor binding in the presence of the radioactive iodine-containing compound of Example 2/a. Particulars: radioligand of Example 2/a, 4 μg CHO-hA3 preparation, Cheng-Prusoff from IC50; read-out: Ki, the radioligand given in Example 2/a.
Protocol: as §1
Receptor Binding in the Presence of the Radioactive Iodine-Containing Compound of Example 2/a:
Incubate the CHO-hA3 membrane preparation (protein content 4 μg) in the presence of the test compound and 0.5 nM of the compound containing radioactive iodine (100.000 cpm), described in Example 2/a, in incubation buffer (50 mM Tris, pH 8.0, 10 mM MgCl2, 1 mM EDTA, 0.08% CHAPS, 0.5% BSA, 2 U/mL adenosine deaminase). […] Detection of radioactivity: in gamma-counter (1470 Wizard, Wallac). […]
Knowing the KD values, by the Cheng-Prusoff equation (Y. J. Cheng and W. H. Prusoff, Biochem. Pharmacol. 22:3099, 1973) the Ki constants of the investigated reference compounds and that of the starting compound of Example 2/b (i.e. of the un-labeled analogue of the new radioligand of Example 2/a) were calculated on the basis of the IC50 values.

The target in assay [4] is T4, human A2a adenosine receptors transfected into HEK-293 cells (Homo sapiens, UniProt P29274).
T4 construct: purchased Receptor Biology, Inc; host or cells: HEK-293 cells (transfected), membranes
T4 sequence (P29274 whole entry): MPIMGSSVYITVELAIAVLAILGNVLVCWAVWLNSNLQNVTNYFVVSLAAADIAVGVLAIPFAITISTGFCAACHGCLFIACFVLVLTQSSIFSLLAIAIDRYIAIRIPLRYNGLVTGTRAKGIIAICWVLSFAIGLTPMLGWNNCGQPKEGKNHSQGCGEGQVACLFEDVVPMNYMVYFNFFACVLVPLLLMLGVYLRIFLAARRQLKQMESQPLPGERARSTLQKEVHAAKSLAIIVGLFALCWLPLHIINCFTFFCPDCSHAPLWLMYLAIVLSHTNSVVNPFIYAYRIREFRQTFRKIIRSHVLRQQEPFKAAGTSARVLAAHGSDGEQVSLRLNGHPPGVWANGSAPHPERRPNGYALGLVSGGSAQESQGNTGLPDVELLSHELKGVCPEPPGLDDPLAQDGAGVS
The assay is described as follows: Human adenosine A2a receptor binding, [3H]CGS-21680. To be noted: 1 μM test compound, radioligand [3H]CGS21680; read-out: Inhibition in 1 μM hA2A [3H]CGS21680. The method, then:
Human Adenosine A2a Receptor Binding
Incubate 7 μg of membranes (human A2, adenosine receptors transfected into HEK-293 cells, source: Receptor Biology, Inc.), in the presence of the test compound and 20 nM [^3H]CGS-21680 (2-[p-(2-carbonylethyl)phenylethylamino]-5′-N-ethylcarboxamido-adenosine) (200.000 dpm) in incubation buffer (50 mM Tris HCl, 10 mM MgCl2, 1 mM EDTA, 2 U/mL adenosine deaminase, pH 7.4). The non-specific binding is defined in the presence of […] NECA (5′-N-ethylcarboxamido-adenosine) in a total volume of 100 μl for 90 min at room temperature. Filter in vacuum over Whatman GF/B glass fibre filters (presoaked for 3 hours in 0.5% polyethylimine), wash 4× with 1 mL ice-cold buffer (50 mM Tris HCl, 10 mM MgCl2, 1 mM EDTA, 0.9% NaCl, pH 7.4) on 96-well Brandel Cell Harvester. Detection of activity: in beta-counter (1450 Microbeta, Wallac) in the presence of 200 μL HiSafe-3 cocktail. Inhibition [%]=100−((activity in the presence of test compound−non-specific activity)/(total activity−non-specific activity))*100.

The target of assay [5] is T3, human A3 receptors (CHO-hA3 membrane preparation). The experiment in a line: Human adenosine A3 receptor binding in the presence of [125I]AB-MECA.
Protocol: Human Adenosine A3 Receptor Binding
as §1
Receptor Binding in the Presence of [^125I]AB-MECA:
Incubate the CHO-hA3 membrane preparation (protein content 2 μg) in the presence of the test compound and 0.5 nM [^125I]AB-MECA (4-amino-3-iodo-benzyl-5′-N-methylcarboxamide-adenosine) (100.000 cpm) in incubation buffer (50 mM Tris, 10 mM MgCl2, 1 mM EDTA, 2 U/mL adenosine deaminase, pH 8.0). […] Filter under 25 Hgmm vacuum over Whatman GF/C glass fibre filters (presoaked in 0.5% polyethylimine for 3 hours), wash 4× with 1 mL ice-cold buffer (50 mM Tris, 10 mM MgCl2, 1 mM EDTA, pH 8) on 96-well Brandel Cell Harvester. Detection of radioactivity: in gamma-counter (1470 Wizard, Wallac). Inhibition [%]=100−((activity in the presence of test compound−non-specific activity)/(total activity−non-specific activity))*100.
The target in assay [6] is T5, human A2b adenosine receptors transfected into HEK-293 cells (Homo sapiens, UniProt P29275).
T5 construct: purchased Receptor Biology, Inc; host or cells: HEK-293 cells (transfected), membranes
T5 sequence (P29275 1-332): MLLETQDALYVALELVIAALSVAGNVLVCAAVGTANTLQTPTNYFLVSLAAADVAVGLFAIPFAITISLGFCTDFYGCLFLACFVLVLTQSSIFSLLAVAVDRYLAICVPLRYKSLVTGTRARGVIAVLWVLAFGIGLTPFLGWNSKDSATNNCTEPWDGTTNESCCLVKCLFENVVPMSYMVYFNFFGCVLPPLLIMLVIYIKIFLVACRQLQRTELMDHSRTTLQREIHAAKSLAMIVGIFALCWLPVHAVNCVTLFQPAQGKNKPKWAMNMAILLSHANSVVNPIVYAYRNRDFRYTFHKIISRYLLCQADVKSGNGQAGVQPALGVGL
The experiment in a line: Human adenosine A2b receptor binding, [3H]DPCPX. Particulars: 1 μM test compound, radioligand [3H]DPCPX; read-out: Inhibition in 1 μM hA2B [3H]DPCPX. The procedure: Human Adenosine A2b Receptor Binding
Binding protocol: incubate 20.8 μg of membranes (human A2b adenosine receptors transfected into HEK-293 cells, source: Receptor Biology, Inc.), in the presence of the test compound and 32.4 nM [^3H]DPCPX (8-cyclopenthyl-1,3-dipropylxanthine) (800.000 dpm) in incubation buffer (50 mM Tris-HCl, 10 mM MgCl2, 1 mM EDTA, 0.1 mM benzamidine, 2 U/mL adenosine deaminase, pH 6.5). The non-specific binding is defined in the presence of 100 μM NECA (5′-N-ethylcarboxamido-adenosine) in a total volume of 100 μL for 30 min at room temperature. Filter under 25 Hgmm vacuum over Whatman GF/C glass fibre filters (presoaked in 0.5% polyethylimine for 3 hours), wash 4× with 1 mL ice-cold 50 mM Tris HCl (pH 6.5) on 96-well Brandel Cell Harvester. Detection of activity: in beta-counter (1450 Microbeta, Wallac) in the presence of 200 μL of HiSafe-3 cocktail. Inhibition [%]=100−((activity in the presence of test compound−non-specific activity)/(total activity−non-specific activity))*100

Regarding `COc1ccc(C(=O)Nc2nc3ccc([125I])cc3c(NCc3cccs3)c2C#N)cc1` [Example 2/a, 4-Methoxy-N-(6-[^125I]iodo-4-[2-thienylmethylamino]-3-cyanoquinolin-2-yl)benzamide], the Kd in assay [1] (0.156 nM-10 nM radioligand, 4 μg protein CHO-hA3, read-out: dissociation constant (KD)) was determined as 4 nM. This compound displayed a maximal binding capacity in assay [1] (4 μg protein CHO-hA3) of 985 femtomol/1 mg protein.

Consider `COc1ccc(C(=O)Nc2nc3ccc(I)cc3c(NCc3cccs3)c2C#N)cc1` [The starting compound of Example 2/b, 4-Methoxy-N-(6-iodo-4-[2-thienylmethylamino]-3-cyanoquinolin-2-yl)benzamide], for which the inhibition at 1 µM was 4% in assay [2], 29% in assay [4] and -16% in assay [6]. Further, the Ki is 1.3 nM in assay [3] and 1.5 nM in assay [5] (radioligand [125I]AB-MECA, CHO-hA3 membranes). Besides, the “selectivity for adenosine A3 receptor compared to the other adenosine receptor sub-types” value in assay [5] (A3 versus A1, A2a, A2b) is recorded as “at least thousand-fold selectivity”.

Values taken from patent publication US7964731B2, “Isotopically marked quinoline derivatives as adenosin A3 receptor ligands” (Sanofi-Aventis, priority 2004, dated 2011).
